From article PMC8148468, “Shikimic acid protects skin cells from UV-induced senescence through activation of the NAD+-dependent deacetylase SIRT1” (Aging (Albany NY), 2021)

Tests used:
[1] = test system: primary human dermal fibroblasts (HDFs); details: female, human
From the text: In our efforts to identify novel factors that could prevent skin cell senescence, we developed a screening process to identify new modulators of the protective role of sirtuins in UV-induced senescence. For this purpose, we established a culture of primary human dermal fibroblasts (HDFs). […] Our first step in the screening was to establish the optimal concentrations of these compounds in the case of HDFs. […] Once established, we took these parameters into account to decide the specific working range of concentrations for each compound.
Human dermal fibroblasts (HDFs) (Promocell, Germany) from 40-year old Caucasian women were used as the in vitro model for compound viability and efficacy screening. Cells were cultured in Dulbecco's modified eagle medium (DMEM) low glucose (Biowest, France) supplemented with 10% fetal bovine serum (FBS) (Capricorn Scientific, Germany) and 10 U/mL penicillin/streptomycin (Biowest, France) in a humidified incubator at 37° C and 5% CO2. For cell passage, cells at 80% confluence were trypsinized and plated at 60% confluence. Cells between passage 13 and 18 were used for the assays. For the SIRT1 in vitro assay, HEK293 cells (ATCC, USA), used to transfect and immunoprecipitate SIRT1 protein, were grown in DMEM high glucose (Thermo Fisher Scientific, USA), supplemented with 10% FBS in a humidified incubator at 37° C and 5% CO2. The following experiments were all performed in triplicate.
The protocol for senescence induction using UVB irradiation is described in the Supplementary Methods. SA-β-Gal staining, WST-1, sulforhodamine B (SRB) and trypan blue assays were performed as previously described. For the siRNA experiments, the protocol for senescence induction using UVB irradiation was the same as in the Supplementary Methods. Specific siRNA (Horizon discovery, UK) for SIRT1, SIRT2, SIRT6, BiP or scramble siRNA were incubated for 6 hours before each irradiation step.

[2] = test system: H3K9ac (the target of SIRT1, SIRT2 and SIRT6); experiment: Sirtuin activity assay in HDF: H3K9ac levels (Western blot); assay type: cell-based, human; details: HDF treated 24h;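 further: screen looked for decreased acetylation as a sign of sirtuin activation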
Description: Figure 1 (A) Schematic representation of the compound testing for sirtuin activity evaluation in HDF. Cells were treated with or without the compounds for 24h and harvested for analysis. […] (C) Western Blot analysis and (D) quantification of H4K16ac and H3K9ac levels in cells treated with Resveratrol or Shikimic acid at the indicated concentrations. H4K16 and H3K9 levels were normalized to H4 and H3 levels respectively. Student T-test, *p<0.05, **p<0.01, ***p<0.001.
HDFs were plated in 100x20 mm2 cell culture plates and after 24h, fresh cell culture medium containing the compounds was added. After 24h, cells were detached with cell scrapers, harvested, and processed for qPCR or western blot.
Protein levels were analyzed as previously described. Cells were directly lysed in 1x Laemmli Buffer (Bio-Rad, USA), incubated at 95° C and centrifuged. Supernatant was subjected to SDS-polyacrylamide gel electrophoresis, and successive steps were performed as described. The list of antibodies used is included in Supplementary Table 2.

[3] = test system: spliced-XBP1; experiment: Spliced XBP1 mRNA (qPCR); assay type: cell-based, human; details: UVB-irradiated cells, SA treatment
Description: Figure 5 (A) Western-blot of BiP proteins levels in UVB or non UVB irradiated cells treated with SA at the indicated concentrations in presence or absence of EX-527 1 μM. (B) Quantification of n=3 experiments as (A). The levels of BiP are normalized by the loading control (histone H3) and represented related to the conditions in UVB irradiated cells in absence of SA and EX-527. Student T-test, *p<0.05. (C) Percentage of SA-β-Gal in assays performed as in Figure 3C. (D) Levels of spliced and unspliced XBP1 mRNA monitored by qPCR analysis in cells treated in the indicated conditions in presence or absence of SA and/or EX-527. The levels were normalized by internal controls and represented in each case related to the conditions in UVB irradiated cells in absence of SA and EX-527. […]
RNA was extracted from cell pellets using the Total RNA Purification Kit (Norgen, Canada), according to the manufacturer’s protocol. Extracted RNA was quantified using a NanoDrop® ND-1000 UV-Vis Spectrophotometer (Thermo Fisher Scientific, USA) and 300 ng of RNA were retrotranscribed to cDNA using the PrimeScriptTM RT reagent kit (Takara Bio Inc., Japan). cDNA was diluted 1/10 in ultrapure water and qPCR mix was prepared by adding cDNA (12 ng), SYBR green supermix (Bio Rad, USA), forward and reverse primers (0.2μM). […] The results were analyzed with Bio-Rad CFX Manager software. […]

Compound: O=C(O)C1=C[C@@H](O)[C@@H](O)[C@H](O)C1 [Shikimic acid]
- LD50 [1]: 58.44 mM
- Max. non-cyt. doses [1]: 25 mM
- effect on H3K9ac levels [2]: induced a similar effect on both targets
- spliced XBP1 mRNA levels [3]: induced a decrease in spliced-XBP1
